Results: US20050101640A1 (Recordati Ireland Limited, priority 2002, published 2005)
Marks after values point to notes of the source that are not given here.

What was measured:
[1] = system: uninephrectomized anesthetized rats, renal ischemia/reperfusion hypertension; assay: Model of acute angiotensin-mediated renal hypertension in anesthetized rats (Example VI, with HCTZ); assay type: in vivo, Sprague-Dawley rats; conditions: for DBP / HR / SBP: mean ± S.E.M.
Description: The animals were tracheotomized to facilitate spontaneous breathing.
Silk threads were placed around both vessels and ureter. The cavity was then covered with Vaseline oil.
Results are expressed as mean values ±S.E in the tables and as mean values ±S.E. and Δ±S.E. changes in the figures.

isolated rat aorta = conditions: in vitro; even after the drug has been removed for 6 hours; cited from earlier work
[2] = system: uninephrectomized anesthetized rats, renal ischemia/reperfusion hypertension; assay: Model of acute angiotensin-mediated renal hypertension in anesthetized rats (Example I); conditions: for DBP mean change ± S.D: DBP decrease after 10 minutes from the start of drug administration, lercanidipine 10 μg/kg, lisinopril 30 μg/kg i.v. or both, Anova factorial model; for effect on systolic blood pressure and diastolic blood pressure compared to vehicle (and, for the combination, to either drug alone): lercanidipine 10 μg/kg i.v. or both; for DBP / HR / SBP: mean ± S.E.M.
Description: Male Sprague-Dawley rats, weighing 250-300 g, were anaesthetized with pentobarbital sodium (35 mg/kg, i.p.) and placed on a thermic blanket. The temperature was maintained at 37° C. with a thermoregulator via a rectal probe. The animals were tracheotomized to facilitate spontaneous breathing. A polyethylene catheter was placed in the left jugular vein to allow for infusion of pentobarbital sodium to maintain anesthesia. The left femoral vein and artery were cannulated with polyethylene catheters to allow drugs administration and to monitor blood pressure, respectively.
The animals then underwent a left nephrectomy by excising the left kidney via a flank incision. The right kidney and renal vein, artery and ureter then were exposed via a right retroperitoneal incision, under a dissecting microscope. Silk threads were positioned loosely around both vessels and ureter. The cavity was then covered with Vaseline oil.
After 30-60 minutes of basal recordings of arterial blood pressure and heart rate the threads around the renal vessels and ureter were tied close to the renal hilum to induce complete renal ischemia of the right kidney. After 2 hours of ischemia (designated as “120” in Tables 4-7), the threads were removed to allow renal reperfusion and urine output. […] To evaluate the effects of drugs administration on blood pressure and heart rate, two-way ANOVA and Dunnet's test was used.

[3] = cited from earlier work
[4] = time 0 min, basal, before ischemia and before drug
[5] = time 120 min, end of ischemia, before drug
[6] = time 125 min, 5 min after reperfusion, at drug administration (reference value)
[7] = time 130 min (5 min after i.v. drug), lisinopril+HCTZ 10+12 μg/kg, lercanidipine 7.5 μg/kg or all three
[8] = time 135 min (10 min after i.v. drug), lisinopril+HCTZ 10+12 μg/kg, lercanidipine 7.5 μg/kg or all three
[9] = time 150 min (25 min after i.v. drug), lisinopril+HCTZ 10+12 μg/kg, lercanidipine 7.5 μg/kg or all three
[10] = time 165 min (40 min after i.v. drug), lisinopril+HCTZ 10+12 μg/kg, lercanidipine 7.5 μg/kg or all three
[11] = time 180 min (55 min after i.v. drug), lisinopril+HCTZ 10+12 μg/kg, lercanidipine 7.5 μg/kg or all three
[12] = time 130 min (5 min after i.v. drug), lisinopril 30 μg/kg, lercanidipine 10 μg/kg or both
[13] = time 135 min (10 min after i.v. drug), lisinopril 30 μg/kg, lercanidipine 10 μg/kg or both
[14] = time 150 min (25 min after i.v. drug), lisinopril 30 μg/kg, lercanidipine 10 μg/kg or both
[15] = time 165 min (40 min after i.v. drug), lisinopril 30 μg/kg, lercanidipine 10 μg/kg or both
[16] = time 180 min (55 min after i.v. drug), lisinopril 30 μg/kg, lercanidipine 10 μg/kg or both

In the case of `COC(=O)C1=C(C)NC(C)=C(C(=O)OC(C)(C)CN(C)CCC(c2ccccc2)c2ccccc2)C1c1cccc([N+](=O)[O-])c1` (centres unmarked) [lercanidipine, methyl 1,1,N-trimethyl-N-(3,3-diphenylpropyl)-2-aminoethyl 1,4-dihydro-2,6-dimethyl-4-(3-nitrophenyl)pyridine-3,5-dicarboxylate], the “effect on blood pressure (in words)” value ([1]; i.v. at peak of reperfusion hypertension, lisinopril+HCTZ 10+12 μg/kg, lercanidipine 7.5 μg/kg or all three) was “statistically significant decrease in diastolic blood pressure”, the “effect on heart rate (in words)” value ([1]; lisinopril+HCTZ 10+12 μg/kg, lercanidipine 7.5 μg/kg i.v. or all three) was “positive chronotropic effect” and the DBP [1, 4] was 82.7 ± 2.7 mmHg. For the same compound, the HR [1, 4] was 380.0 ± 17.2 beats/min, the SBP [1, 4] was 115.0 ± 3.1 mmHg and the DBP [1, 5] was 65.8 ± 4.6 mmHg. For the same compound, the HR [1, 5] was 376.0 ± 17.0 beats/min, the SBP [1, 5] was 103.8 ± 6.4 mmHg and the DBP [1, 6] was 107.0 ± 4.0 mmHg. It also gave an SBP [1, 6] of 138.0 ± 4.6 mmHg, a DBP [1, 7] of 87.0 ± 4.3 b mmHg and an HR [1, 7] of 434.0 ± 26.9 b beats/min. The SBP [1, 7] was 123.7 ± 3.2 mmHg, the DBP [1, 8] was 86.7 ± 5.0 b mmHg and the HR [1, 8] was 448.0 ± 14.4 b beats/min. For the same compound, the SBP [1, 8] was 121.7 ± 4.9 mmHg, the DBP [1, 9] was 86.0 ± 8.2 b mmHg and the HR [1, 9] was 444.0 ± 16.1 b beats/min. The SBP [1, 9] was 121.0 ± 7.0 mmHg, the DBP [1, 10] was 78.0 ± 7.6 b mmHg and the HR [1, 10] was 442.0 ± 20.4 b beats/min. The SBP [1, 10] was 112.3 ± 6.1 b mmHg, the DBP [1, 11] was 66.3 ± 8.0 b mmHg and the HR [1, 11] was 434.0 ± 20.9 b beats/min. For the same compound, the SBP [1, 11] was 99.8 ± 7.2 b mmHg, the “isolated rat aorta response to high K+” value (isolated rat aorta) was “attenuated” and the “DBP mean change ± S.D” value [2] was 26.13 ± 8.68^a. The “effect on systolic blood pressure and diastolic blood pressure compared to vehicle (and, for the combination, to either drug alone)” value ([2]; lisinopril 30 μg/kg) was “significant decreases”, the DBP [2, 4] was 69.8 ± 2.5 mmHg and the HR [2, 4] was 359.6 ± 13.9 beats/min. The SBP [2, 4] was 110.4 ± 3.6 mmHg, the DBP [2, 5] was 70.6 ± 5.4 mmHg and the HR [2, 5] was 359.3 ± 7.8 beats/min. The SBP [2, 5] was 114.5 ± 6.5 mmHg, the DBP [2, 6] was 119.3 ± 5.2 mmHg and the HR [2, 6] was 383.6 ± 9.9 beats/min. For the same compound, the SBP [2, 6] was 167.6 ± 8.9 mmHg, the DBP [2, 12] was 97.1 ± 3.1^b mmHg and the HR [2, 12] was 433.1 ± 8.9^b beats/min. The SBP [2, 12] was 140.4 ± 3.8^b mmHg, the DBP [2, 13] was 93.1 ± 4.0^b mmHg and the HR [2, 13] was 448.0 ± 6.2^b beats/min. The SBP [2, 13] was 140.5 ± 3.7^b mmHg, the DBP [2, 14] was 89.5 ± 4.3^b mmHg and the HR [2, 14] was 443.6 ± 8.2^b beats/min. The SBP [2, 14] was 139.4 ± 3.7^b mmHg, the DBP [2, 15] was 83.5 ± 4.6^b mmHg and the HR [2, 15] was 435.5 ± 11.2^b beats/min. The SBP [2, 15] was 132.0 ± 5.3^b mmHg, the DBP [2, 16] was 78.8 ± 4.0^b mmHg and the HR [2, 16] was 422.8 ± 12.0^b beats/min. The SBP [2, 16] was 128.1 ± 4.7^b mmHg, the elimination route ([3]; in vivo) was “essentially via the hepatic route” and the “time of peak plasma levels following dosing” value ([3]; unmodified release oral dosage form) was 2 to 3 h.
For `NCCCC[C@H](N[C@@H](CCc1ccccc1)C(=O)O)C(=O)N1CCC[C@H]1C(=O)O` [lisinopril], the “DBP mean change ± S.D” value [2] was 26.83 ± 4.40^a, the “effect on systolic blood pressure and diastolic blood pressure compared to vehicle (and, for the combination, to either drug alone)” value ([2]; lisinopril 30 μg/kg) was “significant decreases” and the DBP [2, 4] was 73.3 ± 3.2 mmHg. It also gave an HR [2, 4] of 393.3 ± 8.8 beats/min, an SBP [2, 4] of 104.2 ± 3.0 mmHg and a DBP [2, 5] of 68.3 ± 2.3 mmHg. It also gave an HR [2, 5] of 390.3 ± 10.0 beats/min, an SBP [2, 5] of 99.3 ± 2.4 mmHg and a DBP [2, 6] of 117.3 ± 1.3 mmHg. The SBP [2, 6] was 154.3 ± 3.6 mmHg, the DBP [2, 12] was 92.5 ± 1.0^b mmHg and the HR [2, 12] was 408.3 ± 12.3 beats/min. The SBP [2, 12] was 120.7 ± 1.7^b mmHg, the DBP [2, 13] was 90.5 ± 1.2^b mmHg and the HR [2, 13] was 405.8 ± 9.7 beats/min. The SBP [2, 13] was 119.0 ± 2.1^b mmHg, the DBP [2, 14] was 77.7 ± 4.1^b mmHg and the HR [2, 14] was 406.7 ± 13.1 beats/min. For the same compound, the SBP [2, 14] was 111.0 ± 4.0^b mmHg, the DBP [2, 15] was 64.0 ± 4.8^b mmHg and the HR [2, 15] was 406.7 ± 18.2 beats/min. For the same compound, the SBP [2, 15] was 96.0 ± 6.0^b mmHg, the DBP [2, 16] was 57.3 ± 5.1^b mmHg and the HR [2, 16] was 400.0 ± 14.6 beats/min. The SBP [2, 16] was 90.2 ± 6.8^b mmHg and the “time of peak serum concentrations” value ([3]; following oral administration) was at most 7 h.
